Experimental data: paper PMC12203862, “BroadAMP-GPT: AI-Driven generation of broad-spectrum antimicrobial peptides for combating multidrug-resistant ESKAPE pathogens” (Gut Microbes, 2025)
Values after ≈ are worked out from the molar mass of the structure shown. Where two headings read alike, the source gives them in different places.

Experiments:
[1] = tested on: S. aureus ATCC 29213; assay: microbe, parasite or virus in culture; format: cell-based; details: Staphylococcus aureus, ATCC29213; Table 1; S. aureus ATCC 29213; broth microdilution, CLSI M100-ED34; read-out: MIC
[2] = tested on: A. baumannii 7979; assay: microbe, parasite or virus in culture; format: cell-based; details: Table 1, A. baumannii 7979, broth microdilution
Experimental: (§1) Bacterial strains and growth conditions: All Gram-negative and Gram-positive bacterial strains (Supplementary Table S8) were cultured in Luria-Bertani (LB) or trypticase soy broth (TSB) agar plates, respectively, and incubated overnight at 37 °C unless specifically indicated. A single colony of the tested bacterial strains was inoculated into medium broth with shaking at 220 rpm for further experiments.
(§2) Minimal inhibitory concentrations: Antimicrobial susceptibility testing was performed by broth microdilution method for AMPs against Gram-positive and Gram-negative pathogens above mentioned, following the methods of document CLSI M100-ED34.[43] The MICs were defined as the lowest concentrations that inhibit visible growth of the tested bacteria. E. coli ATCC 25,922 and S. aureus ATCC 29,213 were served as quality controls.

[3] = tested on: A. baumannii AB11; assay: microbe, parasite or virus in culture; format: cell-based
Experimental: as §1, §2

[4] = tested on: E. coli ATCC 25922; assay: microbe, parasite or virus in culture; format: cell-based
Experimental: as §1, §2

[5] = tested on: E. faecalis ES01; assay: microbe, parasite or virus in culture; format: cell-based; details: Enterococcus faecalis; Table 1; E. faecalis ES01; ermB, vanB; broth microdilution; read-out: MIC
Experimental: as §1, §2

[6] = tested on: E. faecalis J2; assay: microbe, parasite or virus in culture; format: cell-based; details: Enterococcus faecalis; Table 1; E. faecalis J2; ermB, optrA; broth microdilution; read-out: MIC
Experimental: as §1, §2

[7] = tested on: E. faecalis JH2-2; assay: microbe, parasite or virus in culture; format: cell-based; details: Enterococcus faecalis, JH22; Table 1; E. faecalis JH2-2; broth microdilution; read-out: MIC
Experimental: as §1, §2

[8] = tested on: E. faecalis SF23-1; assay: microbe, parasite or virus in culture; format: cell-based; details: Enterococcus faecalis, SF231; Table 1; E. faecalis SF23-1; ermB, tetL, cfr; broth microdilution; read-out: MIC
Experimental: as §1, §2

[9] = tested on: E. faecium HFY01; assay: microbe, parasite or virus in culture; format: cell-based; details: Enterococcus faecium; Table 1; E. faecium HFY01; broth microdilution; read-out: MIC
Experimental: as §1, §2

[10] = tested on: E. faecium MC38; assay: microbe, parasite or virus in culture; format: cell-based; details: Enterococcus faecium; Table 1; E. faecium MC38; ermB, optrA; broth microdilution; read-out: MIC
Experimental: as §1, §2

[11] = tested on: E. faecium QF31; assay: microbe, parasite or virus in culture; format: cell-based; details: Enterococcus faecium; Table 1; E. faecium QF31; ermB, cfr; broth microdilution; read-out: MIC
Experimental: as §1, §2

[12] = tested on: K. pneumoniae 9-1; assay: microbe, parasite or virus in culture; format: cell-based; details: Table 1, K. pneumoniae 9-1, broth microdilution
Experimental: as §1, §2

[13] = tested on: P. aeruginosa PA14; assay: microbe, parasite or virus in culture; format: cell-based
Experimental: as §1, §2

[14] = tested on: P. aeruginosa PAO1; assay: microbe, parasite or virus in culture; format: cell-based; details: Table 1, P. aeruginosa PAO1, broth microdilution
Experimental: as §1, §2

[15] = tested on: S. agalactiae DL03; assay: microbe, parasite or virus in culture; format: cell-based; details: Streptococcus agalactiae; Table 1; S. agalactiae DL03; ermB; broth microdilution; read-out: MIC
Experimental: as §1, §2

[16] = tested on: S. aureus M147-2; assay: microbe, parasite or virus in culture; format: cell-based; details: Staphylococcus aureus, M1472; Table 1; S. aureus M147-2; ermB, tetL, cfr; broth microdilution; read-out: MIC
Experimental: as §1, §2

[17] = tested on: S. aureus M92-1; assay: microbe, parasite or virus in culture; format: cell-based; details: Staphylococcus aureus, M921; Table 1; S. aureus M92-1; ermB, tetL, optrA; broth microdilution; read-out: MIC
Experimental: as §1, §2

[18] = tested on: S. aureus YZSA-15; assay: microbe, parasite or virus in culture; format: cell-based; details: Staphylococcus aureus, YZSA15; Table 1; S. aureus YZSA-15; ermC, vanB; broth microdilution; read-out: MIC
Experimental: as §1, §2

[19] = tested on: S. aureus YZSA-21; assay: microbe, parasite or virus in culture; format: cell-based; details: Staphylococcus aureus, YZSA21; Table 1; S. aureus YZSA-21; ermC; broth microdilution; read-out: MIC
Experimental: as §1, §2

[20] = tested on: S. aureus YZSA-24; assay: microbe, parasite or virus in culture; format: cell-based; details: Staphylococcus aureus, YZSA24; Table 1; S. aureus YZSA-24; ermC, mecA; broth microdilution; read-out: MIC
Experimental: as §1, §2

[21] = tested on: S. pyogenes DL02; assay: microbe, parasite or virus in culture; format: cell-based; details: Streptococcus pyogenes; Table 1; S. pyogenes DL02; ermB; broth microdilution; read-out: MIC
Experimental: as §1, §2

[22] = tested on: S. suis SH0918; assay: microbe, parasite or virus in culture; format: cell-based; details: Streptococcus suis; Table 1; S. suis SH0918; ermB, tetO, optrA; broth microdilution; read-out: MIC
Experimental: as §1, §2

[23] = tested on: S. suis P1/7; assay: microbe, parasite or virus in culture; details: Streptococcus suis, P1/7
Experimental: as §1
as §2, with “bacteria.” for “bacteria. E. coli ATCC 25,922 and S. aureus ATCC 29,213 were served as quality controls.”

[24] = tested on: S. enteritis S1; assay: organism not typed; format: cell-based; details: Table 1, S. enteritis S1, broth microdilution
Experimental: as §1, §2

[25] = Acinetobacter baumannii, read-out: MIC
[26] = Acinetobacter baumannii, Table 1, A. baumannii AB11, broth microdilution, read-out: MIC
[27] = Escherichia coli, ATCC25922, Table 1, E. coli ATCC 25922, broth microdilution, read-out: MIC
[28] = Klebsiella pneumoniae, 91, read-out: MIC
[29] = Pseudomonas aeruginosa, Table 1, P. aeruginosa PA14, broth microdilution, read-out: MIC
[30] = Pseudomonas aeruginosa, read-out: MIC

Molecule | MIC [2, 25] | MIC [3, 26] | MIC [4, 27] | MIC [5] | MIC [6] | MIC [7] | MIC [8] | MIC [9] | MIC [10] | MIC [11] | MIC [12, 28] | MIC [13, 29] | MIC [14, 30] | MIC [15] | MIC [16] | MIC [17] | MIC [18] | MIC [19] | MIC [20] | MIC ([24]; read-out: MIC) | further results
CO[C@@]1(NC(=O)Cc2cccs2)C(=O)N2C(C(=O)O)=C(COC(N)=O)CS[C@@H]21 [FOX, Cefoxitin] | > 64 µg/mL | 16 µg/mL (≈ 37.4 µM) | 0.25 µg/mL (≈ 0.585 µM) | > 64 µg/mL | > 64 µg/mL | > 64 µg/mL | > 64 µg/mL | 8 µg/mL (≈ 18.7 µM) | > 64 µg/mL | > 64 µg/mL | > 64 µg/mL | > 64 µg/mL | > 64 µg/mL | 4 µg/mL (≈ 9.36 µM) | 4 µg/mL (≈ 9.36 µM) | 4 µg/mL (≈ 9.36 µM) | 2 µg/mL (≈ 4.68 µM) | 4 µg/mL (≈ 9.36 µM) | 32 µg/mL (≈ 74.9 µM) | 32 µg/mL (≈ 74.9 µM) | MIC [1]: 1 µg/mL (≈ 2.34 µM); MIC [21]: 1 µg/mL (≈ 2.34 µM); MIC [22]: 8 µg/mL (≈ 18.7 µM); MIC [23]: 1 µg/mL (≈ 2.34 µM)
O=C(O)c1cn(C2CC2)c2cc(N3CCNCC3)c(F)cc2c1=O [CIP, ciprofloxacin] |  |  |  | 2 µg/mL (≈ 6.04 µM) | 8 µg/mL (≈ 24.1 µM) | 0.5 µg/mL (≈ 1.51 µM) | 16 µg/mL (≈ 48.3 µM) | 1 µg/mL (≈ 3.02 µM) | 8 µg/mL (≈ 24.1 µM) | 2 µg/mL (≈ 6.04 µM) |  |  |  | 16 µg/mL (≈ 48.3 µM) | 32 µg/mL (≈ 96.6 µM) | 16 µg/mL (≈ 48.3 µM) | 0.25 µg/mL (≈ 0.754 µM) | 0.5 µg/mL (≈ 1.51 µM) | 4 µg/mL (≈ 12.1 µM) |  | MIC [21]: 1 µg/mL (≈ 3.02 µM); MIC [22]: 16 µg/mL (≈ 48.3 µM)
C[C@H]1COc2c(N3CCN(C)CC3)c(F)cc3c(=O)c(C(=O)O)cn1c23 [LVX, Levofloxacin] | > 64 µg/mL |  |  |  |  |  |  |  |  |  | > 64 µg/mL |  | 0.5 µg/mL (≈ 1.38 µM) |  |  |  |  |  |  | 0.5 µg/mL (≈ 1.38 µM) | MIC ([3]; Acinetobacter baumannii, AB11): 0.125 µg/mL (≈ 0.346 µM); MIC ([4]; Escherichia coli, ATCC25922): 0.125 µg/mL (≈ 0.346 µM); MIC ([13]; Pseudomonas aeruginosa, PA14): 0.125 µg/mL (≈ 0.346 µM)
colistin [CST] |  |  |  |  |  |  |  |  |  |  |  |  |  |  |  |  |  |  |  |  | MIC [2]: <0.06 µg/mL; MIC ([3]; Table 1, A. baumannii AB11, broth microdilution): 8 µg/mL; MIC ([4]; Table 1, E. coli ATCC 25922, broth microdilution): 1 µg/mL; MIC [12]: 1 µg/mL; MIC ([13]; Table 1, P. aeruginosa PA14, broth microdilution): <0.06 µg/mL; MIC [14]: 0.125 µg/mL; MIC [24]: 0.5 µg/mL
C[C@@H](O)[C@H]1C(=O)N2C(C(=O)O)=C(S[C@@H]3CN[C@H](C(=O)N(C)C)C3)[C@H](C)[C@H]12 [MEM, Meropenem] | > 64 µg/mL | < 0.06 µg/mL | 0.25 µg/mL (≈ 0.652 µM) |  |  |  |  |  |  |  | 4 µg/mL (≈ 10.4 µM) | 0.5 µg/mL (≈ 1.3 µM) | 0.5 µg/mL (≈ 1.3 µM) |  |  |  |  |  |  | 0.25 µg/mL (≈ 0.652 µM) | 
